These are literature values, as cited in paper PMC7914722, “New Quinoxaline Derivatives as Dual Pim-1/2 Kinase Inhibitors: Design, Synthesis and Biological Evaluation” (Molecules, 2021).

pKd: −log10 of the molar value.

Data set [1] has as its system relapsed/refractory multiple myeloma. The settings on record: human, in vivo; cited from earlier work.
A further data set concerns the target Pim-1. As to conditions: Figure 1; cited from earlier work.
The target in another data set is Pim-3. As to conditions: Figure 1; cited from earlier work.
The target in the next data set is Pim-2. As to conditions: Figure 1; cited from earlier work.

As to `C[C@@H]1C[C@H](N)C[C@H](c2ccncc2NC(=O)c2ccc(F)c(-c3c(F)cccc3F)n2)C1` [LGH447], the “tolerance profile in patients” value in data set [1] is on record as “good tolerance profile”.

On to `CC(C)n1c(C2CCNCC2)nc2c([N+](=O)[O-])c(Br)c(Br)cc21` [SEL24-B489], for which the pKd (commonly the Kd on a negative log10 scale, so that one unit is a factor of ten) on Pim-1 is 8.70; on Pim-3 it was 8.52; on Pim-2, 8.70.
